The values below are quoted from earlier work in PMC8513935.

SMILES strings stand for the structures.

Data set [1] can be described thus: log P octanol/water from commercial databases, averaged (the ESI). Particulars: Octanol (wet), 25 C.
Data set [2] is described as follows: experimental, compiled by the authors from the literature (the ESI cites the sources).
The nature of data set [3]: derived by the authors as gas->solvent minus gas->water (a hypothetical dry solvent; the ESI), not a two-phase measurement.

As to `Cc1ccccc1C`, the log K of transfer, water to solvent in data set [1] is 3.12 log10 K; in data set [3] (1,2-Dichloroethane, 25 C), 3.83 log10 K; in data set [3] (CCl4, 25 C), 3.87 log10 K; in data set [3] (Chloroform, 25 C) it was 3.91 log10 K; in data set [3] (Cyclohexane, 25 C), 3.32 log10 K; in data set [3] (Hexadecane, 25 C), 3.28 log10 K. For the same compound, the log K of transfer, water to solvent was 3.24 log10 K in data set [3] (Octan-1-ol(dry), 25 C); 3.14 log10 K in data set [3] (Pentan-1-ol, 25 C); 3.82 log10 K in data set [3] (Toluene, 25 C). For the same compound, the log K of transfer, gas to solvent in data set [2] (1,2-Dichloroethane, 25 C) is 4.49 log10 K; in data set [2] (CCl4, 25 C), 4.53 log10 K; in data set [2] (Chloroform, 25 C) it was 4.57 log10 K; in data set [2] (Cyclohexane, 25 C), 3.98 log10 K; in data set [2] (Hexadecane, 25 C), 3.94 log10 K; in data set [2] (Octan-1-ol, 25 C), 3.9 log10 K. The log K of transfer, gas to solvent in data set [2] (Pentan-1-ol, 25 C) is 3.8 log10 K; in data set [2] (Toluene, 25 C), 4.48 log10 K; in data set [2] (Water, 25 C) it was 0.66 log10 K.

For the compound `CCCCF`, the log K of transfer, water to solvent in data set [1] is 2.29 log10 K; in data set [3] (Hexadecane, 25 C), 2.06 log10 K. Further, the log K of transfer, gas to solvent in data set [2] (Hexadecane, 25 C) was 1.77 log10 K; in data set [2] (Water, 25 C), -0.29 log10 K.

For the compound `CC(C)=O`, the log K of transfer, water to solvent was -0.24 log10 K in data set [1]; 0.3 log10 K in data set [3] (1,2-Dichloroethane, 25 C); 0.21 log10 K in data set [3] (Acetone, 25 C); 0.31 log10 K in data set [3] (Acetonitrile, 25 C); -0.05 log10 K in data set [3] (Benzene, 25 C); -0.26 log10 K in data set [3] (Butan-1-ol, 25 C). Also, the log K of transfer, water to solvent was 0.09 log10 K in data set [3] (Butanone, 25 C); -0.45 log10 K in data set [3] (CCl4, 25 C); -0.17 log10 K in data set [3] (Chlorobenzene, 25 C); 0.46 log10 K in data set [3] (Chloroform, 25 C); -0.948 log10 K in data set [3] (Cyclohexane, 25 C); -0.041 log10 K in data set [3] (Cyclohexanone, 25 C). Also, the log K of transfer, water to solvent in data set [3] (Di-n-butyl ether, 25 C) was -0.58 log10 K; in data set [3] (Dichloromethane, 25 C) it was 0.56 log10 K; in data set [3] (Diethyl Ether, 25 C), -0.26 log10 K; in data set [3] (Ethanol, 25 C), -0.06 log10 K; in data set [3] (Hexadecane, 25 C) it was -1.13 log10 K; in data set [3] (Hexane, 25 C), -0.867 log10 K. In addition, the log K of transfer, water to solvent was 0.06 log10 K in data set [3] (Methanol, 25 C); -0.52 log10 K in data set [3] (Octan-1-ol(dry), 25 C); -0.34 log10 K in data set [3] (Pentan-1-ol, 25 C); -0.37 log10 K in data set [3] (Propan-2-ol, 25 C); 0.02 log10 K in data set [3] (Tetrahydrofuran, 25 C); -0.2 log10 K in data set [3] (Toluene, 25 C). Besides, the log K of transfer, gas to solvent in data set [2] (1,2-Dichloroethane, 25 C) is 3.13 log10 K; in data set [2] (Acetonitrile, 25 C), 3.14 log10 K; in data set [2] (Benzene, 25 C) it was 2.78 log10 K; in data set [2] (Butan-1-ol, 25 C), 2.57 log10 K; in data set [2] (Butanone, 25 C), 2.92 log10 K; in data set [2] (CCl4, 25 C), 2.38 log10 K. Moreover, the log K of transfer, gas to solvent in data set [2] (Chlorobenzene, 25 C) was 2.66 log10 K; in data set [2] (Chloroform, 25 C), 3.29 log10 K; in data set [2] (Cyclohexane, 25 C), 1.88 log10 K; in data set [2] (Cyclohexanone, 25 C), 2.79 log10 K; in data set [2] (Di-n-butyl ether, 25 C), 2.25 log10 K; in data set [2] (Dichloromethane, 25 C), 3.39 log10 K. For the same compound, the log K of transfer, gas to solvent in data set [2] (Diethyl Ether, 25 C) was 2.57 log10 K; in data set [2] (Ethanol, 25 C), 2.77 log10 K; in data set [2] (Hexadecane, 25 C), 1.7 log10 K; in data set [2] (Hexane, 25 C), 1.96 log10 K; in data set [2] (Methanol, 25 C) it was 2.89 log10 K; in data set [2] (Octan-1-ol, 25 C), 2.31 log10 K. The log K of transfer, gas to solvent is 2.49 log10 K in data set [2] (Pentan-1-ol, 25 C); 2.46 log10 K in data set [2] (Propan-2-ol, 25 C); 3.04 log10 K in data set [2] (Propanone, 25 C); 2.85 log10 K in data set [2] (Tetrahydrofuran, 25 C); 2.63 log10 K in data set [2] (Toluene, 25 C); 2.83 log10 K in data set [2] (Water, 25 C).

Take `CC(C)c1ccccc1`: the log K of transfer, water to solvent in data set [1] is 3.66 log10 K; in data set [3] (Acetone, 25 C), 4.1 log10 K; in data set [3] (Hexadecane, 25 C) it was 3.86 log10 K; in data set [3] (Methanol, 25 C), 3.58 log10 K; in data set [3] (Octan-1-ol(dry), 25 C), 3.76 log10 K; in data set [3] (Propan-2-ol, 25 C), 3.57 log10 K. Moreover, in data set [3] (Tetrahydrofuran, 25 C), the log K of transfer, water to solvent is 4.55 log10 K. Further, the log K of transfer, gas to solvent in data set [2] (Hexadecane, 25 C) is 4.08 log10 K; in data set [2] (Methanol, 25 C), 3.8 log10 K; in data set [2] (Octan-1-ol, 25 C), 3.98 log10 K; in data set [2] (Propan-2-ol, 25 C), 3.79 log10 K; in data set [2] (Propanone, 25 C), 4.32 log10 K; in data set [2] (Tetrahydrofuran, 25 C) it was 4.77 log10 K. For the same compound, the log K of transfer, gas to solvent in data set [2] (Water, 25 C) is 0.22 log10 K.

As for `O`, the log K of transfer, water to solvent in data set [1] is -1.38 log10 K; in data set [3] (Acetone, 25 C), -1.47 log10 K; in data set [3] (Benzene, 25 C), -3.44 log10 K; in data set [3] (CCl4, 25 C) it was -4.05 log10 K; in data set [3] (Chloroform, 25 C), -3.15 log10 K; in data set [3] (Cyclohexane, 25 C), -4.4 log10 K. In addition, the log K of transfer, water to solvent is -2.75 log10 K in data set [3] (Dichloromethane, 25 C); -0.97 log10 K in data set [3] (Ethanol, 25 C); -4.44 log10 K in data set [3] (Hexadecane, 25 C); -4.15 log10 K in data set [3] (Hexane, 25 C); -0.62 log10 K in data set [3] (Methanol, 25 C); -4.36 log10 K in data set [3] (Perfluoroalkane, 25 C). In addition, the log K of transfer, water to solvent in data set [3] (Propan-2-ol, 25 C) is -1.28 log10 K; in data set [3] (Tetrahydrofuran, 25 C), -1.78 log10 K; in data set [3] (Toluene, 25 C), -3.45 log10 K. The log K of transfer, gas to solvent in data set [2] (Benzene, 25 C) is 1.25 log10 K; in data set [2] (CCl4, 25 C), 0.64 log10 K; in data set [2] (Chloroform, 25 C) it was 1.54 log10 K; in data set [2] (Cyclohexane, 25 C), 0.29 log10 K; in data set [2] (Dichloromethane, 25 C) it was 1.94 log10 K; in data set [2] (Ethanol, 25 C), 3.72 log10 K. The log K of transfer, gas to solvent is 0.245 log10 K in data set [2] (Hexadecane, 25 C); 0.54 log10 K in data set [2] (Hexane, 25 C); 4.07 log10 K in data set [2] (Methanol, 25 C); 0.33 log10 K in data set [2] (Perfluoroalkane, 25 C); 3.41 log10 K in data set [2] (Propan-2-ol, 25 C); 3.22 log10 K in data set [2] (Propanone, 25 C). The log K of transfer, gas to solvent in data set [2] (Tetrahydrofuran, 25 C) was 2.91 log10 K; in data set [2] (Toluene, 25 C), 1.24 log10 K; in data set [2] (Water, 25 C), 4.69 log10 K.

Consider `C1CCCC1`, for which the log K of transfer, water to solvent is 3 log10 K in data set [1]; 2.92 log10 K in data set [3] (Ethanol, 25 C); 3.15 log10 K in data set [3] (Heptan-1-ol, 25 C); 3.36 log10 K in data set [3] (Hexadecane, 25 C); 3.59 log10 K in data set [3] (Hexane, 25 C); 2.8 log10 K in data set [3] (Methanol, 25 C). Further, the log K of transfer, water to solvent is 3 log10 K in data set [3] (Propan-1-ol, 25 C) and 3 log10 K in data set [3] (Propan-2-ol, 25 C). Also, the log K of transfer, gas to solvent in data set [2] (Ethanol, 25 C) was 2.04 log10 K; in data set [2] (Heptan-1-ol, 25 C), 2.27 log10 K; in data set [2] (Hexadecane, 25 C), 2.48 log10 K; in data set [2] (Hexane, 25 C), 2.71 log10 K; in data set [2] (Methanol, 25 C) it was 1.92 log10 K; in data set [2] (Propan-1-ol, 25 C) it was 2.12 log10 K. The log K of transfer, gas to solvent in data set [2] (Propan-2-ol, 25 C) is 2.12 log10 K; in data set [2] (Water, 25 C) it was -0.88 log10 K.

Consider `Oc1ccccc1`, for which the log K of transfer, water to solvent was 1.5 log10 K in data set [1]; 0.61 log10 K in data set [3] (1,2-Dichloroethane, 25 C); 0.37 log10 K in data set [3] (Benzene, 25 C); -0.3 log10 K in data set [3] (CCl4, 25 C); 0.25 log10 K in data set [3] (Chlorobenzene, 25 C); 0.32 log10 K in data set [3] (Chloroform, 25 C). Further, the log K of transfer, water to solvent in data set [3] (Cyclohexane, 25 C) is -0.813 log10 K; in data set [3] (Dichloromethane, 25 C) it was 0.64 log10 K; in data set [3] (Hexadecane, 25 C) it was -1.08 log10 K; in data set [3] (Hexane, 25 C), -1.18 log10 K; in data set [3] (Octan-1-ol(dry), 25 C), 0.83 log10 K; in data set [3] (Perfluoroalkane, 25 C), -2.62 log10 K. The log K of transfer, water to solvent in data set [3] (Toluene, 25 C) was 0.23 log10 K. Moreover, the log K of transfer, gas to solvent is 5.46 log10 K in data set [2] (1,2-Dichloroethane, 25 C); 5.22 log10 K in data set [2] (Benzene, 25 C); 4.55 log10 K in data set [2] (CCl4, 25 C); 5.1 log10 K in data set [2] (Chlorobenzene, 25 C); 5.17 log10 K in data set [2] (Chloroform, 25 C); 4.03 log10 K in data set [2] (Cyclohexane, 25 C). Also, the log K of transfer, gas to solvent in data set [2] (Dichloromethane, 25 C) was 5.49 log10 K; in data set [2] (Hexadecane, 25 C), 3.76 log10 K; in data set [2] (Hexane, 25 C) it was 3.67 log10 K; in data set [2] (Octan-1-ol, 25 C), 5.68 log10 K; in data set [2] (Perfluoroalkane, 25 C), 2.23 log10 K; in data set [2] (Toluene, 25 C) it was 5.08 log10 K. Moreover, in data set [2] (Water, 25 C), the log K of transfer, gas to solvent was 4.85 log10 K.
